Reference: patent US6632794B1, “Insulin-like growth factor agonist molecules” (Genentech, Inc., priority 1997, dated 2003)

Key:
dwarf rats [1] = test: Long-term administration to GH-deficient dwarf (dw/dw) rats; format: in vivo, rat; details: for retroperitoneal fat depot weight: at sacrifice; for AST / BUN / CK / Creatinine / Glucose / Insulin: serum at sacrifice, Means ± SEM
Excerpt: Young female dwarf rats (11-12 wk of age, 115-140 g) were bred by homozygous mating (Charles Rivers Laboratories) and delivered to the Genentech Animal House where they were housed five per cage on polystyrene chips and fed a standard animal chow and water ad libitum, and kept in a room of constant humidity and with controlled temperature and lighting. The animals were weighed, and based on uniformity of body weight, 37 of the animals were selected and randomized into treatment groups and cages to give six treatment groups of equal initial body weights (approximately 120 g).
The study consisted of six groups of rats with six or seven rats per group.
The mutant (Leu^24,Ala^31)hIGF-I and native sequence recombinant human IGF-I were administered by osmotic minipumps (ALZET 2001™, Alza, Palo Alto, Calif.) which were placed in a subcutaneous tunnel in the dorsal neck region while the rats were anesthetized with KETAMINE/XYLAZINE™ anesthesia. The pumps were filled with solutions so that the calculated daily dose was 120 μg per rat per day (1 mg/kg/day), assuming that the pump delivered as per the manufacturer's description (24 μl of solution per day).
Recombinant human GH (50 μg/day) was administered for eight days by twice daily sc injection, with each injection being of 25 μg in a volume of 100 μl.
Body weights were measured daily in the morning. After 8 days the animals were anesthetized using CO2 and exsanguinated by cardiac puncture. The remaining blood was allowed to clot and serum was separated and stored for further analysis.
Spleen, thymus, heart, liver, kidney, and perirenal fat were removed and weighed. The tibia was removed and fixed in neutral buffered formalin for histological measurement of epiphyseal plate width.
Serum chemistries were measured using a TECHNICON CHEM I PLUS™ analyzer. Serum insulin concentration was measured using an RIA kit supplied by Linco, Inc. To measure the IGF-I concentrations the serum was extracted using acid ethanol and the supernatant diluted to neutrality and assayed for IGF-I by RIA. The concentration of rat IGF-I in serum extract was measured by RIA using a kit from Diagnostic Systems Laboratories, Inc. Human IGF-I concentration was measured by RIA at Genentech, Inc.
Tibia were sectioned longitudinally, stained with TOLULENE BLUE™ stain and mounted on microscope slides. The tibial epiphyseal plate width was measured using an ocular micrometer attached to a microscope.
Data were analyzed statistically by analysis of variance using one-factor ANOVA followed by Duncan's Range Test.

[2] = biological target: T1, recombinant human (rh) IGFBP-1 (Homo sapiens, UniProt P08833); test: ^125I-IGF-I competitive binding plate assay, IGFBP-1; details: displacement of ^125I-IGF-I, FIG. 6
T1 sequence (P08833 26-259): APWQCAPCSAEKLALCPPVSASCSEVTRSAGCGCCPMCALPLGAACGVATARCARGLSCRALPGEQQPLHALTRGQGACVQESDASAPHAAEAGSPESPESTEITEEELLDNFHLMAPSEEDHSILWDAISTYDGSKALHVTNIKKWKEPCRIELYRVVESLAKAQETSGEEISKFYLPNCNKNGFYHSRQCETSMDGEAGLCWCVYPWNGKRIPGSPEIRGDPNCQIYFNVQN
Protocol: (§1) The mutant (Leu^24,Ala^31)hIGF-I was also tested for its ability to displace radio-labeled rhIGF-I off the IGFBPs in a competitive binding assay. This assay involves coating recombinant human (rh) IGFBP-1 or rhIGFBP-3 (160 ng/ml) onto 96-well plates overnight, blocking the plates for one hour with 0.5% BSA, adding rhIGF-I (250-0.08 ng/ml) or (Leu^24,Ala^31)hIGF-I for 1 hour, then adding 20,000 cpm of ^125I-IGF-I and incubating for 2 hours before washing and counting.
(§2) As an additional assay of peptide activity, several peptides were tested in an assay using ^125I-labeled IGF-I to measure inhibition of IGFBP binding, as described in Example 1 (Assay 3). Serial dilutions of peptide were added to an IGFBP-1 or an IGFBP-3 plate. Thereafter, ^125I-labeled IGF-I was added and the plates were incubated for 2 hours. The plates were then washed and counted to determine the amount of bound IGF-I.

dwarf rats [3] = test: Long-term administration to GH-deficient dwarf (dw/dw) rats; format: in vivo, rat; details: 150 μg of IGF-I agonist as printed
IGFBP-3 = IGFBP-3 (Homo sapiens, UniProt P17936); test: ^125I-IGF-I competitive binding plate assay, IGFBP-3; details: displacement of ^125I-IGF-I, FIG. 7
Chain of IGFBP-3 (P17936 28-291): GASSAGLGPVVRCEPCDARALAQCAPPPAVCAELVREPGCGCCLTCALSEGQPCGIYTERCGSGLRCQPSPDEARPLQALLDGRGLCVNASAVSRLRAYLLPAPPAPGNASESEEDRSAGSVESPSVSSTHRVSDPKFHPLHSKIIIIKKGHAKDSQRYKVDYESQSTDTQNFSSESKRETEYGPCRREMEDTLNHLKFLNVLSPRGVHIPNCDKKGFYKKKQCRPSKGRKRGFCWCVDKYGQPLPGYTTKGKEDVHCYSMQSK
Protocol: as §1, §2

[4] = test system: endogenous IGFBPs present in human serum; test: Displacement of ^125I-IGF-I from IGFBPs in human serum (FPLC-SEC); format: binding; details: normal human serum, IGF mutant 40 μg/ml, mean ± SD, n = 3
Protocol: To determine if the IGF mutant could displace IGF-I from endogenous IGFBPs present in human serum, the following experiment was performed. Radiolabeled rhIGF-I (^125-IGF-I) was incubated with normal human serum samples at a concentration of 33 ng/ml for 16 hr at 4° C. to allow for the formation of […] complexes. […] The samples (n=3) were then analyzed by FPLC size-exclusion chromatography (FPLC-SEC) to determine the relative size and amounts of the ^125I-IGF-I:IGFBP complexes.
Data are expressed as cpm per fraction (n=1).
This Example tests an IGFBP-3-specific peptide, BP15, for its ability to block the binding of ^125I-IGF-I in human serum. Human serum was incubated with ^125I-IGF-I±the peptide and the amount of tracer bound to IGFBPs via size-exclusion chromatography was measured.

[5] = Day one, 120 μg/day each by pump

Row | Substance | epiphyseal plate widths (dwarf rats [1]; 8 days) | body weight gain (dwarf rats [1]; [5]) | retroperitoneal fat depot weight (dwarf rats [1]; 120 μg/day each by pump) | AST (dwarf rats [1]; 8 days) | BUN (dwarf rats [1]; 8 days) | CK (dwarf rats [1]; 8 days) | Creatinine (dwarf rats [1]; 8 days) | Glucose (dwarf rats [1]; 8 days) | Insulin (dwarf rats [1]; 8 days) | other results
1 | (Leu^24,Ala^31)hIGF-I | increased the mean plate widths compared to the individual treatments, but these increases did not reach statistical significance | 0.5 ± 0.6 g | 0.53 ± 0.10 g | 143 ± 8 U/l | 17.8 ± 0.4 mg/dL | 301 ± 44 u/l | 0.23 ± 0.03 mg/dL | 174 ± 18 mg/dL | 0.88 ± 0.09 ng/mL | blood levels of endogenous rat IGF-I (dwarf rats [1]; 8 days): lower; absolute spleen weight (dwarf rats [1]; 8 days, 120 μg/day by pump): 350 ± 14 mg; body weight gain (dwarf rats [1]; day 6, 120 μg/day by pump): 4.2 ± 0.6 g; binding affinity to recombinant IGFBP-1 [2]: affinity only several fold different from that of wild-type hIGF-I; total IGF-I (rat and human) in blood (dwarf rats [3]): rise in total IGF-I; binding affinity to recombinant IGFBP-3 (IGFBP-3): affinity only several fold different from that of wild-type hIGF-I; Free (˜7 kDa) ^125I-IGF-I, percent of total radioactivity ([4]; 0 hr): 9.3 ± 2.3%; ^125I-IGF-I in ˜44 kDa range, percent of total radioactivity ([4]; 0 hr): 60.5 ± 0.8%; ^125I-IGF-I in ˜150 kDa range, percent of total radioactivity ([4]; 0 hr): 30.3 ± 1.4%; Free (˜7 kDa) ^125I-IGF-I, percent of total radioactivity ([4]; 0.5 hr): 38.2 ± 3.7%; ^125I-IGF-I in ˜44 kDa range, percent of total radioactivity ([4]; 0.5 hr): 37.3 ± 2.9%; ^125I-IGF-I in ˜150 kDa range, percent of total radioactivity ([4]; 0.5 hr): 24.4 ± 0.8%; Free (˜7 kDa) ^125I-IGF-I, percent of total radioactivity ([4]; 3 hr): 61.9 ± 2.6%; ^125I-IGF-I in ˜44 kDa range, percent of total radioactivity ([4]; 3 hr): 27.8 ± 1.5%; ^125I-IGF-I in ˜150 kDa range, percent of total radioactivity ([4]; 3 hr): 10.3 ± 1.1%; Free (˜7 kDa) ^125I-IGF-I, percent of total radioactivity ([4]; 24 hr): 81.9 ± 0.5%; ^125I-IGF-I in ˜44 kDa range, percent of total radioactivity ([4]; 24 hr): 12.6 ± 0.4%; ^125I-IGF-I in ˜150 kDa range, percent of total radioactivity ([4]; 24 hr): 5.5 ± 0.1%
2 | IGF-I: native-sequence recombinant human insulin-like growth factor-I (Genentech) | significantly (p<0.05) increased | 1.2 ± 0.4 g | 0.48 ± 0.06 g | 128 ± 11 U/l | 16.0 ± 0.7 mg/dL | 225 ± 18 u/l | 0.22 ± 0.05 mg/dL | 190 ± 24 mg/dL | 0.54 ± 0.06 ng/mL | –
